Calls of active or inactive are those of the source.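 The calls were made as follows: active = inhibition of at least 30% at one or more tested concentrations; inactive = inhibition below 30% at every dose.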
Assay: inhibitors of Bluetongue virus cytopathic effect, confirmation, arbovirus, BSR cells (AID 1250)
Details: BSR cells, Bluetongue virus CPE, ATP luminescence, 72 h; at 20 µM (top of the series)

| SMILES | CPE inhibition |
| --- | --- |
| COc1ccc(/C=C2/C(=O)N(CC3CCCO3)C(=S)N2C)c(OC)c1 (stereo not drawn) | 1.63% (inactive) |
| CCCN(CCC)C(=O)CSc1nc2c(sc(=S)n2-c2ccc(OCC)cc2)c(=O)[nH]1 | 28.7% (inactive) |
| COCCSc1nnc(NC(=O)C2CCCCC2)s1 | 6.07% (inactive) |
| Cc1ccc(N2C(=O)C3CC(c4ccccc4)=C4C5C=CC(C6C(=O)N(c7ccc(C)cc7)C(=O)C56)C4C3C2=O)cc1 (stereo not drawn) | 11.8% (inactive) |
| CCOc1ccc(-n2c(C)cc(/C=C3/C(=N)N4C(=NC3=O)SN=C4S(C)(=O)=O)c2C)cc1 | 25.5% (inactive) |
| O=C(Nc1cccc(NC(=O)c2cccs2)c1)c1ccco1 | 20.1% (inactive) |
| Cn1cc([N+](=O)[O-])c(C(=O)NCc2cc3cc(Cl)ccc3[nH]2)n1 | 9.85% (inactive) |
| C=CCc1cccc2cc(C(=O)Nc3ccccc3C(=O)O)c(=O)oc12 | 17.4% (inactive) |
| CN(C(=O)c1coc(=O)c2ccccc12)c1ccc(Br)cc1 | 18.4% (inactive) |
| N#CCCN(Cc1cccnc1)C(=S)Nc1ccc(OC(F)F)cc1 | 3.08% (inactive) |
| Cc1cccc(-n2c3nc(=O)[nH]c(=O)c-3cc3cc([N+](=O)[O-])ccc32)c1 | 16.1% (inactive) |
| C#CCSc1ncc(S(=O)(=O)c2ccccc2)c(=O)[nH]1 | 1.65% (inactive) |
| C=CCSc1nnc(NC(=O)CSc2nc3ccccc3o2)s1 | 21.8% (inactive) |
| O=C(NCCN1C(=O)S/C(=C/c2cccnc2)C1=O)C1CC(=O)N(Cc2ccccc2)C1 (stereo not drawn) | 3.69% (inactive) |
| O=C(CSc1nccc(=O)[nH]1)N1N=C2/C(=C/c3ccco3)CCCC2C1c1ccco1 (stereo not drawn) | 21.5% (inactive) |
| Cc1ccc(-c2cc(-c3ccccc3)no2)c(O)c1 | 15.6% (inactive) |
| C=C(C)CN(CC)C(=O)CSc1nc(O)cc(=O)n1C1CCCC1 | -1.91% (inactive) |
| O=C(Nc1nc2ccccc2s1)c1ccc(N2CCCCC2)c([N+](=O)[O-])c1 | 22.1% (inactive) |
| N=C1/C(=C/c2cccs2)C(=O)N=C2SN=C(SCc3ccccc3)N12 | 29.3% (inactive) |
| Cc1ccc2c(c1)c(Sc1ccccc1)c(CC(=O)O)n2C | -0.49% (inactive) |
| Cc1cc(F)ccc1S(=O)(=O)Nc1ncnc2scc(-c3ccc(F)cc3)c12 | 21.7% (inactive) |
| O=C(NC1=NCCS1)c1ccc(Cl)c(S(=O)(=O)N2CCCC2)c1 | 12.3% (inactive) |
| Cc1ccccc1S(=O)(=O)Nc1ncnc2scc(-c3ccccc3)c12 | 20.4% (inactive) |
| CC(C)c1ccc(C2=C(O)c3ccccc3C(=O)C2=O)cc1 | 14.3% (inactive) |

| SMILES | CPE inhibition |
| --- | --- |
| CCOC(=O)c1c(-c2ccccc2)csc1NC(=S)N(CC)CC | 10.8% (inactive) |
| C#CCNC(=O)C1=C[C@H](c2cn(C(C)=O)c3ccccc23)C[C@H](OCc2ccc(CO)cc2)O1 | -0.3% (inactive) |
| Cc1ccccc1CSc1nnc(NC(=O)C2COc3ccccc3O2)s1 (stereo not drawn) | 18.9% (inactive) |
| O=c1oc(/C=C/c2ccccc2)nc2ccccc12 | 16.6% (inactive) |
| O=S(=O)(c1ccc(Oc2ccc(Cl)cc2)c(S(=O)(=O)N2CCCCC2)c1)N1CCCCC1 | 22.6% (inactive) |
| Cc1ccc(NC(=O)c2cncc(Br)c2)c(O)c1 | 13.8% (inactive) |
| Brc1ccccc1-c1nnc(SCc2nc3ccccc3s2)o1 | 0.37% (inactive) |
| COC1=C/C(=C/c2c(N)n3nc(-c4ccc(C)cc4)sc3nc2=O)C=CC1=O | 29.9% (inactive) |
| CCn1nc(C)c(NC(=O)Nc2cccc(Cl)c2Cl)c1C | 2.62% (inactive) |
| COc1cc(/C=C/C(=O)Nc2nnc(C(C)(C)C)s2)cc(OC)c1OC | 11.5% (inactive) |
| O=C(O)c1ccccc1Nc1ccc([N+](=O)[O-])cc1 | 24.6% (inactive) |
| CCOC(=O)c1ccc(NC(=O)CC2S/C(=N/N=C/c3c[nH]c4ccccc34)NC2=O)cc1 (stereo not drawn) | 11.7% (inactive) |
| CC1CC(C)CN(c2nc(NCc3ccco3)nc(N)c2[N+](=O)[O-])C1 (stereo not drawn) | 25.5% (inactive) |
| O=C(O)CSc1nc(-c2ccc(Cl)cc2)nc2c1oc1ccccc12 | 24.1% (inactive) |
| COc1ccc(OC)c(/C=N\NC(=O)CC(=O)NCCc2ccccc2)c1 | -1.6% (inactive) |
| O=C(O)c1csc(N/N=C/c2ccc(Br)cc2)n1 | 8.09% (inactive) |
| Cc1nnc(SCC(=O)N2CCc3ccccc32)s1 | 3.29% (inactive) |
| O=c1[nH]c(=O)n(C(c2ccccc2)c2ccccc2)cc1Br | 18.7% (inactive) |
| CSc1nc(-c2ccc(Cl)cc2Cl)[nH]c(=O)c1C#N | 24.3% (inactive) |
| COc1ccc(-c2nc(C3CCCCC3)no2)cc1OC | 8.02% (inactive) |
| O=C(CSCc1ccccc1)Nc1cccc(C(=O)Nc2ccccc2C(=O)O)c1 | 9.16% (inactive) |
| O=[N+]([O-])c1cc(/C=N\Nc2nc(-c3ccccc3)cs2)ccc1O | 26.1% (inactive) |
| O=C(CSCc1ccc(Cl)cc1)Nc1cccc(C(=O)Nc2ccccc2C(=O)O)c1 | 23.5% (inactive) |
| O=[N+]([O-])c1ccc(NCCNCCOc2nonc2-c2ccccc2)c([N+](=O)[O-])c1 | 6.24% (inactive) |

| SMILES | CPE inhibition |
| --- | --- |
| Cc1ccc(-n2cccc2/C=C2/C(=N)N3C(=NC2=O)SN=C3S(C)(=O)=O)cc1 | 12.1% (inactive) |
| N=C(N)SCc1nc2ccccc2c(=O)n1-c1ccccc1 | -4.62% (inactive) |
| CCOC(=O)c1c(-c2ccc(C)c(C)c2)csc1NC(=O)C1CC=CCC1C(=O)O (stereo not drawn) | 29.6% (inactive) |
| O=[N+]([O-])c1cccc(/C=N\N=C2c3ccccc3-c3ccccc32)c1O | 22.2% (inactive) |
| Cc1ccccc1N=C1SCC(=O)N1Cc1ccccc1 | 3.79% (inactive) |
| O=C(CSc1nnc(NC(=O)c2c(F)cccc2F)s1)Nc1ccc(F)cc1 | 3.41% (inactive) |
| CCSc1nnc(NC(=O)c2ccc(C)cc2)s1 | 5.39% (inactive) |
| O=C1CN(C(=O)/C=C/c2ccc(Cl)cc2)c2ccccc2N1 | 7.62% (inactive) |
| Cc1ccc(C(CC(=O)O)Nc2nc(N3CCCCC3)nc(N3CCCCC3)n2)cc1 (stereo not drawn) | 9.28% (inactive) |
| O=C(Nc1sc2c(c1C(=O)O)CCC2)c1cccs1 | 14.7% (inactive) |
| CC1(C)C2CCC(C2)C1(C)NC(=O)CNCc1cccs1 (stereo not drawn) | 2.65% (inactive) |
| COc1ccc(-c2csc(Nc3ccc(S(=O)(=O)Nc4cc(C)on4)cc3)n2)cc1 | 14.2% (inactive) |
| Cc1ccc(C2CC(=O)c3cnn(-c4nc(C)cc(C)n4)c3C2)cc1 (stereo not drawn) | 5.7% (inactive) |
| CC(C)CCN(C(=S)NC(=O)C1CCCCC1)c1c(N)n(Cc2ccccc2)c(=O)[nH]c1=O | 7% (inactive) |
| CC(C)S(=O)(=O)C1=NSC2=NC(=O)/C(=C\c3ccc(-c4cccc(C(=O)O)c4)o3)C(=N)N21 | 24.2% (inactive) |
| OC(c1ccccc1)C1CN(Cc2ccccc2)CCC1(O)c1ccccc1 (stereo not drawn) | 20.9% (inactive) |
| CCCc1cc(=O)[nH]c(SCc2ccc(C#N)cc2)n1 | 14.6% (inactive) |
| CN(c1ccccc1)c1ccc(/C=C(\CCC(=O)O)c2nc3ccccc3s2)cc1[N+](=O)[O-] | 21.4% (inactive) |
| Oc1ccc(Br)cc1-c1nc2cnccn2c1NC1CCCC1 | 16.6% (inactive) |
| Cc1ccc(-c2csc(NC(=O)c3cccc(S(=O)(=O)N4CCN(C)CC4)c3)n2)cc1 | 5.05% (inactive) |
| CC1Cc2ccccc2N1S(=O)(=O)c1cccc(C(=O)N2CCN(c3ncccn3)CC2)c1 (stereo not drawn) | 19.4% (inactive) |
| CC1=C(C#N)C(=O)NC(=O)/C1=C\c1ccc(-c2cc(C)c(C)cc2[N+](=O)[O-])o1 | 4.65% (inactive) |
| C/C(=N\Nc1nc2ccccc2[nH]1)c1ccc2c(c1)OCO2 | 8.76% (inactive) |
| CCOC(=O)c1nn(-c2ccc(Cl)cc2)c2nc(Nc3ccccc3)cc(=O)n12 | 28.9% (inactive) |

| SMILES | CPE inhibition |
| --- | --- |
| Cc1nn(CC(=O)OCCOc2ccc(Br)cc2)c(C)c1[N+](=O)[O-] | 2.41% (inactive) |
| COc1ccc(C2=CC(c3ccc(C)cc3)n3nnnc3N2)cc1 (stereo not drawn) | 6.94% (inactive) |
| Nc1[nH]nc2nc(NCc3ccccc3)c3c(c12)CCN(Cc1ccccc1)C3 | 10.8% (inactive) |
| Cc1ccc(S(=O)(=O)N2CCN(c3ccnc4cc(Cl)ccc34)CC2)cc1C | 10.9% (inactive) |
| OC(CNC1CCCCC1)CNC1CCCCC1 | 7.57% (inactive) |
| CCOC(=O)c1sc(NC(=S)NC(=O)c2cccc(Cl)c2)c(C(=O)OCC)c1C | 1.04% (inactive) |
| CCCC1=NN2C(=N)/C(=C\c3cc(C)n(-c4cccc(C)c4)c3C)C(=O)N=C2S1 | 24% (inactive) |
| COC(=O)c1ccccc1NC(=O)C1CCN(C(=O)c2cc(OC)c(OC)c(OC)c2)CC1 | 1.96% (inactive) |
| Cc1cccc(N2CCN(C(=O)C3COc4ccccc4O3)CC2)c1C (stereo not drawn) | 19.7% (inactive) |
| CNc1ccccc1C(C)(C)c1cc(-c2cccc(OC)c2)no1 | 7.83% (inactive) |
| Cc1nc2c(C(=O)NCCC(C)C)c[nH]n2c(=O)c1Cl | 9.83% (inactive) |
| CCOc1ccc(-c2csc(NC(=O)CSCC(=O)O)n2)c2ccccc12 | 17.7% (inactive) |
| C/C=C/c1ccc(OCCCCOc2ccccc2C(C)=O)c(OC)c1 | 11.9% (inactive) |
| Cc1cc(C(=O)CSc2nnc(-c3ccco3)o2)c(C)n1Cc1ccco1 | 2.98% (inactive) |
| COC(=O)c1ccccc1NC(=O)c1ccc(COc2ccc(C)c(C)c2)o1 | 27.6% (inactive) |
| CCOCCCNC(=S)NCCNc1nc2c(C)cccc2cc1C#N | 7.38% (inactive) |
| Cc1cccc2c1nc(-c1ccccc1)n1nnnc21 | -3.74% (inactive) |
| Fc1ccccc1COc1ccc2ccccc2c1CNc1nn[nH]n1 | 11.5% (inactive) |
| Cc1c(C(=O)NC(Cc2ccccc2)c2nc3ccccc3[nH]2)cccc1[N+](=O)[O-] (stereo not drawn) | 13.5% (inactive) |
| CCCCN(CC)C(=O)CSc1nc2c(sc(=S)n2-c2ccc(OCC)cc2)c(=O)[nH]1 | 18.4% (inactive) |
| CSc1ccccc1NC(=O)CO/N=C(\C)c1cc2ccccc2o1 | 12.9% (inactive) |

Source: PubChem BioAssay AID1250 (SRMLSC, 2008)
